Measured values taken from patent publication US4849425A, “Readily absorbable pharmaceutical composition” (Ishihara Sangyo Kaisha Ltd., priority 1985, dated 1989).

Assay: Absorbability through the gut, oral, aqueous and non-aqueous dispersing solvents, plasma concentration in rats (Test Example 5)
Type: in vivo, Wistar male rats
Conditions: rat; for absorption: oral; for concentration at 1 h / concentration at 3 h / concentration at 5 h / concentration at 24 h: plasma, po, 20 mg/kg
Procedure: 20 mg of Compound No. 3 was taken into a mortar, and 5 ml of an aqueous solution containing 1.7% of β-type cyclodextrin or 2% or 40% of dimethyl β-type cyclodextrin was added under stirring to obtain a suspension of Compound No. 3. The suspension was orally administered by an oral sonde to a group of three Wistar male rats (body weight: 200-250g). The dose of Compound No. 3 was 20 mg/kg rat body weight. Further, Compound No. 3 was likewise suspended in an aqueous solution containing 0.5% of sodium salt of carboxymethyl cellulose, and the suspension was used as the control ( in FIG. 3). After the administration, the blood was periodically sampled, and the plasma was separated. After the removal of protein by acetonitrile, Compound No. 3 in the plasma was quantitatively analyzed by a high speed liquid chromatography as shown in Test Example 1.
The changes with time of the concentration of Compound No. 3 in the plasma after the oral administration were studied in the same manner as in Test Example 3 by using an aqueous solution of 10% (weight/volume) hydroxypropyl cellulose (HPC-L, manufactured by Nippon Soda Co., Ltd.), 2.5% (weight/volume) methyl cellulose (Metrose SM 15,manufactured by Shin-Etsu Chemical Co., Ltd.), 10% (weight/volume) hydroxypropylmethyl cellulose (Metrose TC5R, manufactured by Shin-Etsu Chemical Co., Ltd.), 2.5% (weight/volume) sodium salt of carboxymethyl cellulose (manufactured by Wako Junyaku K.K.), 10% (weight/volume) sucrose fatty acid ester (P1570, manufactured by Hishito K.K.) or 10% (weight/volume) pluronic F 68 (manufactured by Asahi Denka Kogyo K.K.), as an aqueous dispersing solvent for Compound No. 3, and medium-chain length fatty acid triglyceride (ODO, manufactured by Nisshin Seiyu K.K.), ODO containing 5% (weight/volume) sucrose fatty acid ester (S-370F, manufactured by Hishito K.K.), or a refined soybean oil (The Green Cross Corporation) or refined sesame oil (Takemoto Yushi K.K.) containing 5% (weight/volume) of S-370F, as a non-aqueous dispersing solvent, and an aqueous solution of 50% (weight/volume) dimethyl β-type cyclodextrin and an aqueous solution of 0.5% (weight/volume) sodium carboxymethyl cellulose, as the control.

[1] = 0.5% (w/v) sodium salt of carboxymethyl cellulose (control), oral 20 mg/kg
[2] = 2.5% (w/v) methyl cellulose, oral 20 mg/kg
[3] = 2.5% (w/v) sodium salt of carboxymethyl cellulose, oral 20 mg/kg
[4] = 5% (w/v) Pluronic F31/ODO, oral 20 mg/kg
[5] = 5% (w/v) sucrose fatty acid ester/ODO, oral 20 mg/kg
[6] = 5% (w/v) sucrose fatty acid ester/refined sesame oil, oral 20 mg/kg
[7] = 5% (w/v) sucrose fatty acid ester/refined soybean oil, oral 20 mg/kg
[8] = 10% (w/v) Pluronic F68, oral 20 mg/kg
[9] = 10% (w/v) hydroxypropyl cellulose, oral 20 mg/kg
[10] = 10% (w/v) hydroxypropylmethyl cellulose, oral 20 mg/kg
[11] = 10% (w/v) sucrose fatty acid ester, oral 20 mg/kg
[12] = 50% (w/v) dimethyl β-type cyclodextrin, oral 20 mg/kg
[13] = medium-chain length fatty acid triglyceride (ODO), oral 20 mg/kg

Structure (SMILES): O=C(NC(=O)c1ccccc1[N+](=O)[O-])Nc1ccc(Oc2ncc(Br)cn2)c(Cl)c1 [Compound No. 3, N-(2-nitrobenzoyl)-N'-[4-(5-bromo-2-pyrimidinyloxy)-3-chlorophenyl]urea]
- absorption (50% (w/v) dimethyl β-type cyclodextrin, among the aqueous dispersing solvents): highest absorption
- absorption (ODO containing 5% (w/v) Pluronic F32): high absorption
- concentration at 1 h [1]: 30 ng/mL
- concentration at 3 h [1]: 100 ng/mL
- concentration at 5 h [1]: 150 ng/mL
- concentration at 24 h [1]: 10 ng/mL
- concentration at 1 h [2]: 60 ng/mL
- concentration at 3 h [2]: 110 ng/mL
- concentration at 5 h [2]: 110 ng/mL
- concentration at 24 h [2]: 30 ng/mL
- concentration at 1 h [3]: 40 ng/mL
- concentration at 3 h [3]: 110 ng/mL
- concentration at 5 h [3]: 90 ng/mL
- concentration at 24 h [3]: 90 ng/mL
- concentration at 1 h [4]: 100 ng/mL
- concentration at 3 h [4]: 200 ng/mL
- concentration at 5 h [4]: 220 ng/mL
- concentration at 24 h [4]: 470 ng/mL
- concentration at 1 h [5]: 60 ng/mL
- concentration at 3 h [5]: 180 ng/mL
- concentration at 5 h [5]: 200 ng/mL
- concentration at 24 h [5]: 220 ng/mL
- concentration at 1 h [6]: 140 ng/mL
- concentration at 3 h [6]: 490 ng/mL
- concentration at 5 h [6]: 570 ng/mL
- concentration at 24 h [6]: 370 ng/mL
- concentration at 1 h [7]: 120 ng/mL
- concentration at 3 h [7]: 500 ng/mL
- concentration at 5 h [7]: 550 ng/mL
- concentration at 24 h [7]: 390 ng/mL
- concentration at 1 h [8]: 110 ng/mL
- concentration at 3 h [8]: 190 ng/mL
- concentration at 5 h [8]: 230 ng/mL
- concentration at 24 h [8]: 120 ng/mL
- concentration at 1 h [9]: 50 ng/mL
- concentration at 3 h [9]: 120 ng/mL
- concentration at 5 h [9]: 110 ng/mL
- concentration at 24 h [9]: 40 ng/mL
- concentration at 1 h [10]: 140 ng/mL
- concentration at 3 h [10]: 310 ng/mL
- concentration at 5 h [10]: 280 ng/mL
- concentration at 24 h [10]: 100 ng/mL
- concentration at 1 h [11]: 40 ng/mL
- concentration at 3 h [11]: 180 ng/mL
- concentration at 5 h [11]: 180 ng/mL
- concentration at 24 h [11]: 240 ng/mL
- concentration at 1 h [12]: 280 ng/mL
- concentration at 3 h [12]: 580 ng/mL
- concentration at 5 h [12]: 490 ng/mL
- concentration at 24 h [12]: 360 ng/mL
- concentration at 1 h [13]: 120 ng/mL
- concentration at 3 h [13]: 170 ng/mL
- concentration at 5 h [13]: 210 ng/mL
- concentration at 24 h [13]: 240 ng/mL
- absorption (refined soybean oil or refined sesame oil containing 5% (w/v) sucrose fatty acid ester, among the non-aqueous dispersing solvents): high absorption almost equal to dimethyl β-type cyclodextrin
